According to patent publication US11254668B2, “Pyrazolo[1,5-A]pyrazin-4-yl and related derivatives” (Pfizer Inc., priority 2017, dated 2022):

Experiments:
Format in all cases: biochemical
JAK2 = JAK2 (Homo sapiens (Human), UniProt O60674); test: JAK Caliper Enzyme Assay at 1 mM ATP, JAK2
Procedure: (§1) Compounds of the invention were evaluated by in vitro methods to determine their respective ability to inhibit the JAK kinases (TYK2, JAK1, JAK2, JAK3).
(§2) The human JAK inhibitory activity was determined by using a microfluidic assay to monitor phosphorylation of a synthetic peptide by the recombinant human kinase domain of each of the four members of the JAK family, JAK1, JAK2, JAK3 and TYK2. […] Each assay condition was optimized for enzyme concentration and room temperature incubation time to obtain a conversion rate of 20% to 30% phosphorylated peptide product. Reactions were terminated by the addition of stop buffer containing EDTA. Utilizing the LabChip 3000 mobility shift technology (Caliper Life Science), each assay reaction was sampled to determine the level of phosphorylation. This technology is separation-based, allowing direct detection of fluorescently labeled substrates and products. Separations are controlled by a combination of vacuum pressure and electric field strength optimized for each peptide substrate.
(§3) JAK Caliper Enzyme Assay at 1mM ATP
(§4) Compounds were added to a 384-well plate.
(§5) The data was collected using the HTS Well Analyzer software from Caliper Life Sciences. The data output for data analysis is the percent product converted calculated on peak height (Equation 1). % product converted=100*((product)/(product+substrate)) Equation 1: […]
(§6) The percent effect at each compound concentration was calculated based on the positive and negative control well contained within each assay plate (Equation 2). […] The negative control wells contained DMSO alone (at the same concentration as the compound wells) that was used to set the baseline activity in the assay (i.e., uninhibited JAK1, JAK2, JAK3 or TYK2). % effect=100*([…](positive control-negative control)) Equation 2: […]
(§7) The percent effect was plotted against the compound concentration compound.

TYK2 = TYK2 (Homo sapiens (Human), UniProt P29597); test: JAK Caliper Enzyme Assay at 1 mM ATP, TYK2
TYK2, sequence (P29597 897-1176): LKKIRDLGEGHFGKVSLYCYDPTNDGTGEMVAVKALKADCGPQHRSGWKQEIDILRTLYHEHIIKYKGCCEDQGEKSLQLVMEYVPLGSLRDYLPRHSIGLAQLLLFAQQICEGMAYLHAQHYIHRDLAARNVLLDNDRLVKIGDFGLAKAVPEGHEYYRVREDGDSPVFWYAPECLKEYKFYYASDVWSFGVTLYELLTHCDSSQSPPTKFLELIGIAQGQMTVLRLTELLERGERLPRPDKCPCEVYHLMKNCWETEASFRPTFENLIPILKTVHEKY
Procedure: as §1, §2, §3, §4, §5, §6, §7

JAK3 = JAK3 (Homo sapiens (Human), UniProt P52333); test: JAK Caliper Enzyme Assay at 1 mM ATP, JAK3
JAK3, sequence (P52333 822-1111): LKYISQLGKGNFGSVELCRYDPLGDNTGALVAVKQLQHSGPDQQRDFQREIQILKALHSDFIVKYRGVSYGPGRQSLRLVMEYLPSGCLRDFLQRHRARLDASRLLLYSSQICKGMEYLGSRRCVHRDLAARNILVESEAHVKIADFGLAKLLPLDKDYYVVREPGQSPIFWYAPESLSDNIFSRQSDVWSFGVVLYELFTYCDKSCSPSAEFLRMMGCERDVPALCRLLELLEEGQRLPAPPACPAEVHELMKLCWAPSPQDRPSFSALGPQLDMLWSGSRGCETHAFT
Procedure: as §1, §2, §3, §4, §5, §6, §7

JAK1 = JAK1 (Homo sapiens (Human), UniProt P23458); test: JAK Caliper Enzyme Assay at 1 mM ATP, JAK1
JAK1, sequence (P23458 875-1153): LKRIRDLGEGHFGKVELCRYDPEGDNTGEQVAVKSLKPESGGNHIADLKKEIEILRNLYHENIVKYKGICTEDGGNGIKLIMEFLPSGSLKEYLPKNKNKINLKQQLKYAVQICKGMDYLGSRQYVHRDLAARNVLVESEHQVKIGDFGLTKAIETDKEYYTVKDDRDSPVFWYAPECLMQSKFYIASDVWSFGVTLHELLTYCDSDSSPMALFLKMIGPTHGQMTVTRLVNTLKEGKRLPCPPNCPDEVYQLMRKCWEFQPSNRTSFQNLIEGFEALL
Procedure: as §1, §2, §3, §4, §5, §6, §7

JAK2, sequence (O60674 849-1124): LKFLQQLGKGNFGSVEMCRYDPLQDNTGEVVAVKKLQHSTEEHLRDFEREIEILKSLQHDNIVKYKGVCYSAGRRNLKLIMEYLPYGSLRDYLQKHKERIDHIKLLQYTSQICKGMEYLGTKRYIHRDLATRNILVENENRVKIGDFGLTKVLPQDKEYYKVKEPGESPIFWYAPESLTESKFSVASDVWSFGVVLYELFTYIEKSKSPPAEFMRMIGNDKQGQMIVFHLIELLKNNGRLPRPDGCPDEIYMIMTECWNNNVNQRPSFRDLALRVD

IC50 (JAK2) [nM] | IC50 (TYK2) [nM] | IC50 (JAK3) [nM] | IC50 (JAK1) [nM] | SMILES
464 | 44 | > 10000 | 1020 | CS(=O)(=O)N1CC(CC#N)(n2ccc(-c3nc(-c4ccn[nH]4)cc4ncccc34)n2)C1 [Example 17, [1-(methylsulfonyl)-3-{3-[7-(1H-pyrazol-5-yl)-1,6-naphthyridin-5-yl]-1H-pyrazol-1-yl}azetidin-3-yl]acetonitrile]
188 | 26 | 9910 | 175 | N#CCC1(n2ccc(-c3nc(-c4ccn[nH]4)cc4ncccc34)n2)CN(S(=O)(=O)C2COC2)C1 [Example 19, [1-(oxetan-3-ylsulfonyl)-3-{3-[7-(1H-pyrazol-5-yl)-1,6-naphthyridin-5-yl]-1H-pyrazol-1-yl}azetidin-3-yl]acetonitrile]
240 | 25 | > 10000 | 381 | N#CC[C@]1(n2ccc(-c3nc(-c4ccn[nH]4)cc4ncccc34)n2)C[C@H](C#N)C1 [Example 20, trans-3-(cyanomethyl)-3-{3-[7-(1H-pyrazol-5-yl)-1,6-naphthyridin-5-yl]-1H-pyrazol-1-yl}cyclobutanecarbonitrile]
50 | 9 | 6750 | 71 | N#CCC1(n2ccc(-c3nc(-c4ccn[nH]4)cc4ncccc34)n2)CC(C#N)C1 (stereo not drawn) [Example 21, cis-3-(cyanomethyl)-3-{3-[7-(1H-pyrazol-5-yl)-1,6-naphthyridin-5-yl]-1H-pyrazol-1-yl}cyclobutanecarbonitrile]
891 | 61 | > 10000 | 834 | N#CC[C@H]1C[C@](CC#N)(n2ccc(-c3nc(-c4ccn[nH]4)cc4ncccc34)n2)C1 [Example 22, 2,2′-(trans-1-{3-[7-(1H-pyrazol-5-yl)-1,6-naphthyridin-5-yl]-1H-pyrazol-1-yl}cyclobutane-1,3-diyl)diacetonitrile]
216 | 15 | > 10000 | 324 | N#CCC1CC(CC#N)(n2ccc(-c3nc(-c4ccn[nH]4)cc4ncccc34)n2)C1 (stereo not drawn) [Example 23, 2,2′-(cis-1-{3-[7-(1H-pyrazol-5-yl)-1,6-naphthyridin-5-yl]-1H-pyrazol-1-yl}cyclobutane-1,3-diyl)diacetonitrile]
8680 | 1640 | > 10000 | > 10000 | N#CCC1(n2ccc(-c3nc(-c4ccn[nH]4)cc4ncccc34)n2)CC(C(N)=O)C1 (stereo not drawn) [Example 25, trans-3-(cyanomethyl)-3-{3-[7-(1H-pyrazol-5-yl)-1,6-naphthyridin-5-yl]-1H-pyrazol-1-yl}cyclobutanecarboxamide]
> 10000 | 7560 | > 10000 | > 10000 | CNC(=O)[C@H]1C[C@](CC#N)(n2ccc(-c3nc(-c4ccn[nH]4)cc4ncccc34)n2)C1 [Example 27, trans-3-(cyanomethyl)-N-methyl-3-{3-[7-(1H-pyrazol-5-yl)-1,6-naphthyridin-5-yl]-1H-pyrazol-1-yl}cyclobutanecarboxamide]
1790 | 207 | > 10000 | 2570 | N#CCC1(n2ccc(-c3nc(-c4ccn[nH]4)cc4ncccc34)n2)CC(CO)C1 (stereo not drawn) [Example 28, [trans-3-(hydroxymethyl)-1-{3-[7-(1H-pyrazol-5-yl)-1,6-naphthyridin-5-yl]-pyrazol-1-yl}cyclobutyl]acetonitrile]

Second part, the molecule before the results:

SMILES | IC50 (JAK2) [nM] | IC50 (TYK2) [nM] | IC50 (JAK3) [nM] | IC50 (JAK1) [nM]
CO[C@H]1C[C@@](CC#N)(n2cc(-c3nc(-c4cnn(CCO)c4)cc4ncccc34)cn2)C1 [Example 8, [cis-1-(4-{7-[1-(2-hydroxyethyl)-1H-pyrazol-4-yl]-1,6-naphthyridin-5-yl}-1H-pyrazol-1-yl)-3-methoxycyclobutyl]acetonitrile] | 126 | 130 | > 10000 | 661
CO[C@H]1C[C@](CC#N)(n2cc(-c3nc(-c4cnn(CCO)c4)cc4ncccc34)cn2)C1 [Example 9, [trans-1-(4-{7-[1-(2-hydroxyethyl)-1H-pyrazol-4-yl]-1,6-naphthyridin-5-yl}-1H-pyrazol-1-yl)-3-methoxycyclobutyl]acetonitrile] | 107 | 77 | > 10000 | 520
N#CCC1(n2cc(-c3nc(-c4cnn(C5CCOCC5)c4)cc4ncccc34)cn2)CN(CC(F)(F)F)C1 [Example 11, [3-(4-{7-[1-(tetrahydro-2H-pyran-4-yl)-1H-pyrazol-4-yl]-1,6-naphthyridin-5-yl}-1H-pyrazol-1-yl)-1-(2,2,2-trifluoroethyl)azetidin-3-yl]acetonitrile] | 14 | 21 | 2620 | 70
CO[C@H]1C[C@@](CC#N)(n2cc(-c3nc(-c4cc(CO)n[nH]4)cc4ncccc34)cn2)C1 [Example 12, [cis-1-(4-{7-[3-(hydroxymethyl)-1H-pyrazol-5-yl]-1,6-naphthyridin-5-yl}-1H-pyrazol-1-yl)-3-methoxycyclobutyl]acetonitrile] | 101 | 63 | > 10000 | 407
CO[C@H]1C[C@](CC#N)(n2cc(-c3nc(-c4cc(CO)n[nH]4)cc4ncccc34)cn2)C1 [Example 13, [trans-1-(4-{7-[3-(hydroxymethyl)-1H-pyrazol-5-yl]-1,6-naphthyridin-5-yl}-1H-pyrazol-1-yl)-3-methoxycyclobutyl]acetonitrile] | 82 | 42 | > 10000 | 266
N#CCC1(n2ccc(-c3nc(Cl)cc4ncccc34)n2)CN(CC(F)(F)F)C1 [Example 14, {3-[3-(7-chloro-1,6-naphthyridin-5-yl)-1H-pyrazol-1-yl]-1-(2,2,2-trifluoroethyl)azetidin-3-yl}acetonitrile] | > 10000 | 1470 | > 10000 | 8960
N#CCC1(n2ccc(-c3nccc4ncccc34)n2)CN(CC(F)(F)F)C1 [Example 15, {3-[3-(1,6-naphthyridin-5-yl)-1H-pyrazol-1-yl]-1-(2,2,2-trifluoroethyl)azetidin-3-yl}acetonitrile] | > 10000 | 7680 | > 10000 | > 10000
N#CCC1(n2ccc(-c3nc(-c4cc[nH]n4)cc4ncccc34)n2)CN(CC(F)(F)F)C1 [Example 16, [3-{3-[7-(1H-pyrazol-3-yl)-1,6-naphthyridin-5-yl]-1H-pyrazol-1-yl}-1-(2,2,2-trifluoroethyl)azetidin-3-yl]acetonitrile] | 431 | 23 | > 10000 | 475
N#CC[C@]1(n2ccc(-c3nc(-c4cc[nH]n4)cc4ncccc34)n2)C[C@@H](C(N)=O)C1 [Example 24, cis-3-(cyanomethyl)-3-{3-[7-(1H-pyrazol-3-yl)-1,6-naphthyridin-5-yl]-1H-pyrazol-1-yl}cyclobutanecarboxamide] | 1690 | 167 | > 10000 | 3670
CNC(=O)C1CC(CC#N)(n2ccc(-c3nc(-c4cc[nH]n4)cc4ncccc34)n2)C1 (stereo not drawn) [Example 26, cis-3-(cyanomethyl)-N-methyl-3-{3-[7-(1H-pyrazol-3-yl)-1,6-naphthyridin-5-yl]-1H-pyrazol-1-yl}cyclobutanecarboxamide] | 3900 | 1470 | > 10000 | 6070
